ChEMBL document CHEMBL3774345, “Synthesis of new diarylamides with pyrimidinyl pyridine scaffold and evaluation of their anti-proliferative effect on cancer cell lines” (Bioorg Med Chem Lett, 2016)

Experiments:
[1] = Cytotoxicity against human Caki1 cells assessed as cell growth at 10^-4 M after 24 hrs by SRB assay; assay type: functional; conditions: CAKI-1, 24 h, read-out: Activity
[2] = Cytotoxicity against human LOXIMVI cells assessed as cell growth at 10^-7 M after 24 hrs by SRB assay; assay type: functional; conditions: LOX IMVI, read-out: Activity
[3] = Cytotoxicity against human Hs 578T cells after 24 hrs by SRB assay; assay type: functional
CCRF-CEM [4] = assay: Cytotoxicity against human CCRF-CEM cells assessed as cell growth at 10^-6 M after 24 hrs by SRB assay; assay type: functional; conditions: read-out: Activity
[5] = Cytotoxicity against human MOLT4 cells assessed as cell growth at 10^-7 M after 24 hrs by SRB assay; assay type: functional; conditions: MOLT-4, 24 h, read-out: Activity
ACHN = assay: Cytotoxicity against human ACHN cells assessed as cell growth at 10^-8 M after 24 hrs by SRB assay; assay type: functional; conditions: read-out: Activity
SK-MEL-28 = assay: Cytotoxicity against human SK-MEL-28 cells assessed as cell growth at 10^-4 M after 24 hrs by SRB assay; assay type: functional; conditions: SK-MEL-28, 24 h, read-out: Activity
[6] = Cytotoxicity against human UO31 cells after 24 hrs by SRB assay; assay type: functional, cell-based; conditions: UO-31, 24 h
[7] = Cytotoxicity against human PC3 cells assessed as cell growth at 10^-6 M after 24 hrs by SRB assay; assay type: functional; conditions: PC-3, 24 h, read-out: Activity
MCF7 = assay: Cytotoxicity against human MCF7 cells assessed as cell growth at 10^-7 M after 24 hrs by SRB assay; assay type: functional; conditions: MCF7, 24 h, read-out: Activity
[8] = Cytotoxicity against human Caki1 cells after 24 hrs by SRB assay; assay type: functional; conditions: CAKI-1, 24 h
NCI-H322M = assay: Cytotoxicity against human NCI-H322M cells assessed as cell growth at 10^-6 M after 24 hrs by SRB assay; assay type: functional; conditions: read-out: Activity
[9] = Cytotoxicity against human HCT15 cells assessed as cell growth at 10^-8 M after 24 hrs by SRB assay; assay type: functional; conditions: HCT-15, 24 h, read-out: Activity
SK-MEL-2 = assay: Cytotoxicity against human SK-MEL-2 cells assessed as cell growth at 10^-5 M after 24 hrs by SRB assay; assay type: functional; conditions: SK-MEL-2, 24 h, read-out: Activity
[10] = Cytotoxicity against human HCT116 cells assessed as cell growth at 10^-4 M after 24 hrs by SRB assay; assay type: functional; conditions: HCT-116, 24 h, read-out: Activity
[11] = Cytotoxicity against human HCT15 cells after 24 hrs by SRB assay; assay type: functional, cell-based; conditions: HCT-15, 24 h
KM12 = assay: Cytotoxicity against human KM12 cells assessed as cell growth at 10^-4 M after 24 hrs by SRB assay; assay type: functional; conditions: KM12, 24 h, read-out: Activity
[12] = Cytotoxicity against human HL-60(TB) cells assessed as cell growth at 10^-4 M after 24 hrs by SRB assay; assay type: functional; conditions: HL-60, 24 h, read-out: Activity
[13] = Cytotoxicity against human LOXIMVI cells assessed as cell growth at 10^-6 M after 24 hrs by SRB assay; assay type: functional; conditions: LOX IMVI, read-out: Activity
[14] = Cytotoxicity against human RPMI8226 cells after 24 hrs by SRB assay; assay type: functional; conditions: RPMI-8226, 24 h
[15] = Cytotoxicity against human SNB75 cells assessed as cell growth at 10^-4 M after 24 hrs by SRB assay; assay type: functional; conditions: SNB-75, 24 h, read-out: Activity
[16] = Cytotoxicity against human HL-60(TB) cells assessed as cell growth at 10^-8 M after 24 hrs by SRB assay; assay type: functional; conditions: HL-60, 24 h, read-out: Activity
[17] = Cytotoxicity against human NCI-ADR-RES cells after 24 hrs by SRB assay; assay type: functional
Malme-3M = assay: Cytotoxicity against human MALME-3M cells after 24 hrs by SRB assay; assay type: functional, cell-based
HT-29 = assay: Cytotoxicity against human HT-29 cells after 24 hrs by SRB assay; assay type: functional; conditions: HT-29, 24 h
[18] = Cytotoxicity against human OVCAR4 cells assessed as cell growth at 10^-4 M after 24 hrs by SRB assay; assay type: functional; conditions: OVCAR-4, 24 h, read-out: Activity
CCRF-CEM [19] = assay: Cytotoxicity against human CCRF-CEM cells assessed as cell growth at 10^-4 M after 24 hrs by SRB assay; assay type: functional; conditions: read-out: Activity
[20] = Cytotoxicity against human HCC2998 cells assessed as cell growth at 10^-8 M after 24 hrs by SRB assay; assay type: functional; conditions: HCC 2998, 24 h, read-out: Activity
[21] = Cytotoxicity against human SF268 cells assessed as cell growth at 10^-6 M after 24 hrs by SRB assay; assay type: functional; conditions: SF-268, 24 h, read-out: Activity
[22] = Cytotoxicity against human Caki1 cells assessed as cell growth at 10^-7 M after 24 hrs by SRB assay; assay type: functional; conditions: CAKI-1, 24 h, read-out: Activity
NCI-H460 = assay: Cytotoxicity against human NCI-H460 cells after 24 hrs by SRB assay; assay type: functional; conditions: NCI-H460, 24 h
[23] = Cytotoxicity against human TK10 cells assessed as cell growth at 10^-6 M after 24 hrs by SRB assay; assay type: functional; conditions: TK-10, 24 h, read-out: Activity
[24] = read-out: LC50 (the source's name)
[25] = read-out: pLC50 (the source's name) (converted)

`O=C(Nc1cc(-c2cccnc2)nc(NCCCN2CCOCC2)n1)c1cc(Br)cc(C(F)(F)F)c1` showed a growth at 100 µM [1] of -100%, a growth at 0.1 µM [2] of 92% and a GI50 ([3]; read-out: GI50) of 2.71 µM. The CC50 [3, 24] was > 100 µM, the TGI ([3]; read-out: TGI) was 8.51 µM and the GI50 ([3]; read-out: pGI50 (converted)) was 2.69 µM. For the same compound, the CC50 [3, 25] was 100 µM, the TGI ([3]; read-out: pTGI (converted)) was 8.51 µM and the growth at 1 µM (CCRF-CEM [4]) was 103%. For the same compound, the growth at 0.1 µM [5] was 95%, the growth at 0.01 µM (ACHN) was 95% and the growth at 100 µM (SK-MEL-28) was -77%. For the same compound, the IC50 [6] was 1.4 µM, the GI50 ([6]; read-out: GI50) was 1.4 µM and the CC50 [6, 24] was 8.19 µM. It also gave a TGI ([6]; read-out: TGI) of 3.39 µM, a GI50 ([6]; read-out: pGI50 (converted)) of 1.41 µM and a CC50 [6, 25] of 8.13 µM. It also gave a TGI ([6]; read-out: pTGI (converted)) of 3.39 µM, a growth at 1 µM [7] of 92% and a growth at 0.1 µM (MCF7) of 89%. For the same compound, the GI50 ([8]; read-out: GI50) was 2.53 µM, the CC50 [8, 24] was 32.8 µM and the TGI ([8]; read-out: TGI) was 10.7 µM. It also gave a GI50 ([8]; read-out: pGI50 (converted)) of 2.51 µM, a CC50 [8, 25] of 33.1 µM and a TGI ([8]; read-out: pTGI (converted)) of 10.7 µM. The growth at 1 µM (NCI-H322M) was 91%, the growth at 0.01 µM [9] was 91% and the growth at 10 µM (SK-MEL-2) was 27%. The growth at 100 µM [10] was -88%, the IC50 [11] was 1.92 µM and the GI50 ([11]; read-out: GI50) was 1.92 µM. For the same compound, the CC50 [11, 24] was 19.3 µM, the TGI ([11]; read-out: TGI) was 5.28 µM and the GI50 ([11]; read-out: pGI50 (converted)) was 1.91 µM. It also gave a CC50 [11, 25] of 19.5 µM, a TGI ([11]; read-out: pTGI) of 5.25 µM and a growth at 100 µM (KM12) of -90%. It also gave a growth at 100 µM [12] of -51%, a growth at 1 µM [13] of 88% and a GI50 ([14]; read-out: GI50) of 3.15 µM. The CC50 [14, 24] was > 100 µM, the TGI ([14]; read-out: TGI) was 9.69 µM and the GI50 ([14]; read-out: pGI50 (converted)) was 3.16 µM. For the same compound, the CC50 [14, 25] was > 100 µM, the TGI ([14]; read-out: pTGI (converted)) was 9.77 µM and the growth at 100 µM [15] was -99%. For the same compound, the growth at 0.01 µM [16] was 100%, the GI50 ([17]; read-out: GI50) was 2.6 µM and the CC50 [17, 24] was 42.9 µM. It also gave a TGI ([17]; read-out: TGI) of 9.11 µM, a GI50 ([17]; read-out: pGI50 (converted)) of 2.57 µM and a CC50 [17, 25] of 42.7 µM. For the same compound, the TGI ([17]; read-out: pTGI (converted)) was 9.12 µM, the IC50 (Malme-3M) was 1.76 µM and the GI50 (Malme-3M; read-out: GI50) was 1.76 µM. It also gave a CC50 (Malme-3M; [24]) of 7.28 µM, a TGI (Malme-3M; read-out: TGI) of 3.58 µM and a GI50 (Malme-3M; read-out: pGI50 (converted)) of 1.78 µM. It also gave a CC50 (Malme-3M; [25]) of 7.24 µM, a TGI (Malme-3M; read-out: pTGI (converted)) of 3.55 µM and a GI50 (HT-29; read-out: GI50) of 2.12 µM. It also gave a CC50 (HT-29; [24]) of 16.1 µM, a TGI (HT-29; read-out: TGI) of 4.95 µM and a GI50 (HT-29; read-out: pGI50 (converted)) of 2.14 µM. The CC50 (HT-29; [25]) was 16.2 µM, the TGI (HT-29; read-out: pTGI (converted)) was 4.9 µM and the growth at 100 µM [18] was -95%. For the same compound, the growth at 100 µM (CCRF-CEM [19]) was -52%, the growth at 0.01 µM [20] was 96% and the growth at 1 µM [21] was 85%. For the same compound, the growth at 0.1 µM [22] was 90%, the GI50 (NCI-H460; read-out: GI50) was 2.97 µM and the CC50 (NCI-H460; [24]) was 44.1 µM. The TGI (NCI-H460; read-out: TGI) was 8.94 µM, the GI50 (NCI-H460; read-out: pGI50 (converted)) was 2.95 µM and the CC50 (NCI-H460; [25]) was 43.7 µM. It also gave a TGI (NCI-H460; read-out: pTGI (converted)) of 8.91 µM and a growth at 1 µM [23] of 88%.
